One data set relates to Factor VII. The data set is described as follows: In vivo mouse Factor VII silencing model (FVII siRNA in lipid formulations, serum FVII chromogenic assay). The conditions noted are these: dose giving 50% reduction in plasma FVII vs control animals; i.v. tail vein, 24 h, FVII siRNA formulation. Details: species or system C57Bl/6 mice. How it is done:
C57BL/6 mice (Charles River Labs, MA) received either saline or siRNA in desired formulations via tail vein injection at a volume of 0.01 mL/g. At various time points post-administration, animals were anesthesized by isofluorane inhalation and blood was collected into serum separator tubes by retro orbital bleed. Serum levels of Factor VII protein were determined in samples using a chromogenic assay (Coaset Factor VII, DiaPharma Group, OH or Biophen FVII, Aniara Corporation, OH) according to manufacturer protocols. A standard curve was generated using serum collected from saline treated animals. In experiments where liver mRNA levels were assessed, at various time points post-administration, animals were sacrificed and livers were harvested and snap frozen in liquid nitrogen. Frozen liver tissue was ground into powder. Tissue lysates were prepared and liver mRNA levels of Factor VII and apoB were determined using a branched DNA assay (QuantiGene Assay, Panomics, CA).
Factor VII (FVII), a prominent protein in the coagulation cascade, is synthesized in the liver (hepatocytes) and secreted into the plasma. FVII levels in plasma can be determined by a simple, plate-based colorimetric assay. As such, FVII represents a convenient model for determining sirna-mediated downregulation of hepatocyte-derived proteins, as well as monitoring plasma concentrations and tissue distribution of the nucleic acid lipid particles and siRNA.
C57BL/6 mice (Charles River Labs, MA) received either saline or formulated siRNA via tail vein injection. At various time points after administration, serum samples were collected by retroorbital bleed. Serum levels of Factor VII protein were determined in samples using a chromogenic assay (Biophen FVII, Aniara Corporation, OH). To determine liver mRNA levels of Factor VII, animals were sacrificed and livers were harvested and snap frozen in liquid nitrogen. Tissue lysates were prepared from the frozen tissues and liver mRNA levels of Factor VII were quantified using a branched DNA assay (QuantiGene Assay, Panomics, CA).
FVII activity was evaluated in FVII siRNA-treated animals at 48 hours after intravenous (bolus) injection in C57BL/6 mice. FVII was measured using a commercially available kit for determining protein levels in serum or tissue, following the manufacturer's instructions at a microplate scale. FVII reduction was determined against untreated control mice, and the results were expressed as % Residual FVII. Two dose levels (0.05 and 0.005 mg/kg FVII siRNA) were used in the screen of each novel liposome composition.
Test formulations were initially assessed for their FVII knockdown in female 7-9 week old, 15-25 g, female C57B1/6 mice at 0.1, 0.3, 1.0 and 5.0 mg/kg with 3 mice per treatment group. All studies included animals receiving either phosphate-buffered saline (PBS, Control group) or a benchmark formulation. Formulations were diluted to the appropriate concentration in PBS immediately prior to testing. Mice were weighed and the appropriate dosing volumes calculated (10 μl/g body weight). Test and benchmark formulations as well as PBS (for Control animals) were administered intravenously via the lateral tail vein. Animals were anesthetised 24 h later with an intraperitoneal injection of Ketamine/Xylazine and 500-700 μl of blood was collected by cardiac puncture into serum separator tubes (BD Microtainer). Blood was centrifuged at 2,000×g for 10 min at 15° C. and serum was collected and stored at −70° C. until analysis. Serum samples were thawed at 37° C. for 30 min, diluted in PBS and aliquoted into 96-well assay plates. Factor VII levels were assessed using a chromogenic assay (Biophen FVII kit, Hyphen BioMed) according to manufacturer's instructions and absorbance measured in microplate reader equipped with a 405 nm wavelength filter. […]

A short description of data set [1]: Determination of pKa of formulated lipids with the fluorescent probe TNS. The conditions noted are these: TNS assay, vesicles cationic lipid/DSPC/CH/PEG-c-DOMG 40:10:40:10.
Description: The pKa values for the different ionizable cationic lipids were determined essentially as described (Eastman et al., 1992 Biochemistry 31:4262-4268, which is incorporated by reference in its entirety) using the fluorescent probe 2-(p-toluidino)-6-naphthalenesulfonic acid (TNS), which is non-fluorescent in water but becomes appreciably fluorescent when bound to membranes. Vesicles composed of cationic lipid/DSPC/CH/PEG-c-DOMG (40:10:40:10 mole ratio) were diluted to 0.1 mM in buffers (130 mM NaCl, 10 mM CH3COONH4, 10 mM MES, 10 mM HEPES) of various pH values ranging from 2 to 11. An aliquot of the TNS aqueous solution (1 μM final) was added to the diluted vesicles and after a 30 second equilibration period the fluorescent of the TNS-containing solution was measured at excitation and emission wavelengths of 321 nm and 445 nm, respectively. The pKa of the cationic lipid-containing vesicles was determined by plotting the measured fluorescence against the pH of the solutions and fitting the data to a Sigmodial curve using the commercial graphing program IgorPro.
The mark [2] stands for this setting: probe 2-(p-toluidino)-6-naphthalenesulfonic acid (TNS), 1 µM final, pKa.

From US20160317676A1, “METHODS AND COMPOSITIONS FOR DELIVERY OF NUCLEIC ACIDS” (Tekmira Pharmaceuticals Corporation, priority 2009, published 2016) come the findings set out here.

Values joined by “and” are separate entries in the source; they are usually repeats but may differ in a detail not shown here. Equal values may be shown once.

`CCCCC/C=C\C/C=C\CCCCCCCCC1(CCCCCCCC/C=C\C/C=C\CCCCC)OCC(CCN(C)C)CO1` [DLin-K6S-C2-DMA] showed an ED50 with Factor VII of 3.00 mg/kg. For the same compound, the pKa in data set [1] (setting [2]) came out at 7.25.
In turn, `CCCCC/C=C\C/C=C\CCCCCCCCC1(CCCCCCCC/C=C\C/C=C\CCCCC)OC[C@H](CCN(C)C)O1` [DLin-K-XTC2-DMA-(S)] showed an ED50 in the data set on Factor VII of 0.10 mg/kg. In addition, in data set [1] (setting [2]), the pKa was 6.65.
`CC/C=C\C/C=C\C/C=C\C/C=C\C/C=C\C/C=C\CCCC1(CCC/C=C\C/C=C\C/C=C\C/C=C\C/C=C\C/C=C\CC)OCC(CCN(C)C)O1` (centres unmarked) [DDha-K5-C2-DMA] displayed an ED50 with Factor VII of 0.20 mg/kg. In data set [1] (setting [2]), this compound gave a pKa of 6.09.
On to `CCCCC/C=C\C/C=C\CCCCCCCCC(CCCCCCCC/C=C\C/C=C\CCCCC)OC(=O)CCCN(CC)CC` [DLin-M-C3-DEA], for which, in the data set on Factor VII, the 50% effective dose (ED50) was 0.30 mg/kg and 0.3 mg/kg. The pKa in data set [1] is given as 6.17.

One may read the ED50 as the dose at which the effect has come halfway, by size or by number of responders. In general, pKa refers to the negative logarithm of the acid dissociation constant. Low values mean a group that gives up its proton readily, high ones a group that holds its proton tightly.
